We go through 13 compounds from ChEMBL document CHEMBL1201862, “PubChem BioAssay data set” (2004).

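Five concentrations, 48 hours, 96-well plates. Abbreviation: GI50, concentration required for 50% inhibition of growth.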 The source made the active and inactive calls. No stated cut-off is given here; in the data, active = GI50 up to about 1.1 µM and inactive = higher.

Among the test systems are SF-295; OVCAR-5; SNB-19; HCT-15; RPMI-8226; SK-MEL-2; EKVX; A498; SF-268; SNB-75; U-251; LOX IMVI; TK-10; Malme-3M; OVCAR-4; MOLT-4; HOP-62; NCI-H522.
Common to all, as to experiment: NCI tumour cell line growth inhibition, 48 h

Regarding `CCC(=O)N1C(=O)OCC1C(C)C` (stereo not drawn), the GI50 with SF-295 is > 100 µM (inactive); in the assay with OVCAR-5, > 100 µM (inactive); with SNB-19, > 100 µM (inactive); in the assay on HCT-15, over 100 µM; in the assay with RPMI-8226 it was > 100 µM (inactive); in the assay on SK-MEL-2 it was > 100 µM (inactive). The GI50 in the assay with EKVX, in the assay on A498, in the assay with SF-268, with SNB-75, in the assay on U-251 and with LOX IMVI was > 100 µM (inactive) in each case. Moreover, the GI50 in the assay on TK-10, with Malme-3M, in the assay on OVCAR-4, with MOLT-4 and in the assay on HOP-62 was > 100 µM (inactive) in each case.

On to `COC1=CC(C)C2C[C@H]3O[C@H](O)C[C@H]4C(C)C(=O)C(O)C([C@@]2(C)C1=O)[C@@]34C` (stereo partly drawn), for which the GI50 was > 100 µM (inactive) in the assay on SF-295; over 100 µM in the assay with HCT-15; > 100 µM (inactive) in the assay on RPMI-8226; > 100 µM (inactive) with EKVX; > 100 µM (inactive) in the assay on A498; > 100 µM (inactive) with SNB-75. Further, the GI50 in the assay with NCI-H522 was > 100 µM (inactive); in the assay with U-251 it was > 10 µM (inactive); in the assay on LOX IMVI, > 100 µM (inactive); in the assay on TK-10, > 100 µM (inactive); in the assay on Malme-3M it was > 100 µM (inactive); in the assay on MOLT-4, > 100 µM (inactive).

Regarding `COc1ccc2c3ccc4c(c3n(C)c2c1)C(=O)c1ccccc1C4=O`, the GI50 was 78.2 µM (inactive) in the assay with SF-295; > 100 µM (inactive) in the assay with SNB-19; over 100 µM with HCT-15; > 100 µM (inactive) in the assay on RPMI-8226; > 100 µM (inactive) with EKVX; 48.4 µM (inactive) with A498. For the same compound, the GI50 in the assay with SF-268 was 56.6 µM (inactive); in the assay on SNB-75 it was > 100 µM (inactive); in the assay on NCI-H522, > 100 µM (inactive); in the assay on U-251 it was 63.8 µM (inactive); in the assay with Malme-3M, 85.7 µM (inactive); in the assay with OVCAR-4 it was 17.8 µM (inactive). Moreover, the GI50 in the assay on MOLT-4 and in the assay with HOP-62 was > 100 µM (inactive) in each case.

Regarding `CC(C)c1ccc(C(c2ccc(OCC(=O)O)cc2)c2ccc(C(C)C)cc(=O)c2O)c(O)c(=O)c1`, the GI50 was 4.4 µM (inactive) with SF-295; 5.89 µM (inactive) with SNB-19; 3.56 µM in the assay on HCT-15; 4.38 µM (inactive) in the assay on RPMI-8226; 4.93 µM (inactive) with EKVX; 23.9 µM (inactive) with A498. For the same compound, the GI50 with SNB-75 was 3.29 µM (inactive); in the assay with U-251, 5.3 µM (inactive); in the assay with LOX IMVI, 3.71 µM (inactive); in the assay with TK-10 it was 5.3 µM (inactive); in the assay with OVCAR-4, 3.61 µM (inactive); in the assay on MOLT-4 it was 3.73 µM (inactive). Besides, in the assay with HOP-62, the GI50 was 2.79 µM (inactive).

In the case of `CC1CC(=O)Nc2ccc(Cl)cc2N1C(=O)CN1CCC(CCCCN(C)C)CC1` (stereo not drawn), the GI50 in the assay with SF-295 is > 100 µM (inactive); in the assay on OVCAR-5 it was > 100 µM (inactive); in the assay on SNB-19, > 100 µM (inactive); in the assay with HCT-15 it was over 100 µM; with RPMI-8226 it was > 100 µM (inactive); in the assay on A498, > 100 µM (inactive). The GI50 in the assay on SF-268, with U-251, with LOX IMVI, in the assay on TK-10, with Malme-3M and in the assay with OVCAR-4 was > 100 µM (inactive) each time. For the same compound, the GI50 in the assay on MOLT-4 and with HOP-62 was > 100 µM (inactive) in each case.

On to `C[C@]12CC[C@H](O)CC1=CC[C@@H]1C2CC[C@]2(C)NC(=O)C(C#N)CC12` (stereo partly drawn), for which the GI50 was 12.8 µM (inactive) with SF-295; > 100 µM (inactive) in the assay on OVCAR-5; 37.8 µM with HCT-15; > 100 µM (inactive) in the assay on RPMI-8226; > 100 µM (inactive) in the assay with SK-MEL-2; > 100 µM (inactive) with EKVX. Moreover, the GI50 in the assay with A498 was > 100 µM (inactive); with SNB-75 it was 51.4 µM (inactive); in the assay on U-251, > 100 µM (inactive); with TK-10, > 100 µM (inactive); in the assay on Malme-3M it was > 100 µM (inactive); in the assay with OVCAR-4, > 100 µM (inactive). Also, the GI50 in the assay with MOLT-4 and in the assay on HOP-62 was > 100 µM (inactive) throughout.

With `CCCCCCCCCCCCCC(=O)CSCCNC(=O)CCNC(=O)[C@@H](O)C(C)(C)COP(=O)(O)OP(=O)(O)OCC1OC(n2cnc3c(N)ncnc32)C(O)C1OP(=O)(O)O` (stereo partly drawn), the GI50 in the assay with SF-295 is 13.4 µM (inactive); in the assay with OVCAR-5 it was 32.4 µM (inactive); with SNB-19, 18.6 µM (inactive); with HCT-15, 17.1 µM; with SK-MEL-2, 17.2 µM (inactive); in the assay on EKVX it was 17.9 µM (inactive). Further, the GI50 in the assay on A498 is 18.4 µM (inactive); in the assay on SF-268, 20 µM (inactive); with SNB-75, 5.7 µM (inactive); in the assay with NCI-H522, 10.6 µM (inactive); in the assay with U-251 it was 18 µM (inactive); in the assay on LOX IMVI, 18.4 µM (inactive). Besides, the GI50 was 68.2 µM (inactive) in the assay with TK-10, 17.9 µM (inactive) in the assay on Malme-3M, 6.75 µM (inactive) in the assay on OVCAR-4 and 16 µM (inactive) in the assay on HOP-62.

Take `COC(=O)C1CC(OC(C)=O)C=C2C(=O)CCC21` (stereo not drawn): the GI50 is 26.2 µM (inactive) with SNB-19; 15.3 µM in the assay on HCT-15; 21.4 µM (inactive) with RPMI-8226; 29 µM (inactive) with SK-MEL-2; 37.9 µM (inactive) in the assay on A498; 16.6 µM (inactive) in the assay on SF-268. The GI50 with SNB-75 is 15.2 µM (inactive); in the assay with NCI-H522 it was 1.89 µM (inactive); in the assay on U-251, 28.3 µM (inactive); in the assay with TK-10, 29.4 µM (inactive); in the assay with Malme-3M, 19.6 µM (inactive); in the assay with OVCAR-4, 19 µM (inactive). Also, the GI50 is 14.6 µM (inactive) with MOLT-4 and 25.4 µM (inactive) in the assay on HOP-62.

For `COc1cc(/C=C(\C#N)C(=O)c2ccccc2)cc(OC)c1OC`, the GI50 in the assay with SF-295 was > 100 µM (inactive); in the assay on OVCAR-5, > 100 µM (inactive); in the assay on SNB-19 it was > 100 µM (inactive); in the assay with HCT-15, over 100 µM; with RPMI-8226, > 100 µM (inactive); with SK-MEL-2, > 100 µM (inactive). The GI50 in the assay with EKVX was > 100 µM (inactive); in the assay on SF-268, > 100 µM (inactive); with SNB-75 it was 38.1 µM (inactive); in the assay with NCI-H522, > 100 µM (inactive); in the assay with U-251, > 100 µM (inactive); with LOX IMVI, > 100 µM (inactive). Further, the GI50 in the assay with TK-10, in the assay with Malme-3M, in the assay with OVCAR-4, in the assay with MOLT-4 and with HOP-62 was > 100 µM (inactive) each time.

Take `COc1cc(/C=N/c2nncs2)ccc1O`: the GI50 with SF-295 was > 100 µM (inactive); in the assay with OVCAR-5, > 100 µM (inactive); in the assay with SNB-19, > 100 µM (inactive); in the assay on HCT-15 it was over 100 µM; in the assay on RPMI-8226 it was > 100 µM (inactive); in the assay on SK-MEL-2, > 100 µM (inactive). In addition, the GI50 in the assay on EKVX, in the assay on A498, in the assay with SF-268, with SNB-75, in the assay with U-251 and in the assay with TK-10 was > 100 µM (inactive) throughout. For the same compound, the GI50 in the assay on Malme-3M, in the assay with OVCAR-4, in the assay with MOLT-4 and in the assay with HOP-62 was > 100 µM (inactive) each time.

Take `O=C(O)CCSC(=O)Nc1ccccc1`: the GI50 in the assay with SF-295 is > 100 µM (inactive); in the assay with OVCAR-5 it was > 100 µM (inactive); with SNB-19, > 100 µM (inactive); in the assay with HCT-15, over 100 µM; in the assay with RPMI-8226, > 100 µM (inactive); with SK-MEL-2, > 100 µM (inactive). The GI50 in the assay with EKVX was > 100 µM (inactive); with A498, > 100 µM (inactive); in the assay with SF-268 it was 44.8 µM (inactive); in the assay with U-251, > 100 µM (inactive); in the assay with LOX IMVI, > 100 µM (inactive); in the assay on TK-10 it was > 100 µM (inactive). The GI50 in the assay on OVCAR-4, in the assay with MOLT-4 and with HOP-62 was > 100 µM (inactive) throughout.

With `O=S1(=O)OCCOS(=O)(=O)C1I`, the GI50 in the assay with SF-295 was 56.2 µM (inactive); with SNB-19, 77.4 µM (inactive); with RPMI-8226, > 100 µM (inactive); in the assay with SK-MEL-2, > 100 µM (inactive); in the assay on EKVX, > 100 µM (inactive); in the assay on A498, > 100 µM (inactive). Besides, the GI50 is 92.5 µM (inactive) in the assay with SF-268; > 100 µM (inactive) in the assay with SNB-75; > 100 µM (inactive) in the assay with NCI-H522; > 100 µM (inactive) in the assay with TK-10; > 100 µM (inactive) in the assay on Malme-3M; > 100 µM (inactive) in the assay on OVCAR-4. The GI50 is 75.3 µM (inactive) in the assay with MOLT-4 and > 100 µM (inactive) in the assay with HOP-62.

Take `CC1CN1c1c(C(=O)/C=C/c2ccccc2)c(-c2ccccc2)nn(C)c1=O` (stereo not drawn): the GI50 with SF-295 is 22.6 µM (inactive); in the assay on OVCAR-5 it was 20.3 µM (inactive); in the assay on SNB-19, 24.4 µM (inactive); with HCT-15, 14.1 µM; in the assay on SK-MEL-2, 16.3 µM (inactive); in the assay on EKVX it was 17.3 µM (inactive). Further, the GI50 with A498 is 17.7 µM (inactive); with SF-268 it was 27.9 µM (inactive); with SNB-75, 18.8 µM (inactive); in the assay on NCI-H522 it was 13.4 µM (inactive); in the assay on U-251, 16.9 µM (inactive); in the assay with LOX IMVI, 15.6 µM (inactive). Besides, the GI50 was 25.8 µM (inactive) in the assay on TK-10; 19.7 µM (inactive) with Malme-3M; 16.2 µM (inactive) in the assay with OVCAR-4; 15.2 µM (inactive) in the assay on MOLT-4; 22 µM (inactive) in the assay with HOP-62.
